# Literature values as cited in paper PMC6722509, “Design and In Vivo Pharmacokinetic Evaluation of Triamcinolone Acetonide Microcrystals-Loaded PLGA Microsphere for Increased Drug Retention in Knees after Intra-Articular Injection” (Pharmaceutics, 2019).
# Key:
# [1] = 0.25 mg per knee, rats
compound,measurement,setting,value
"CC1(C)O[C@@H]2C[C@H]3[C@@H]4CCC5=CC(=O)C=C[C@]5(C)[C@@]4(F)[C@@H](O)C[C@]3(C)[C@]2(C(=O)CO)O1 [TA, triamcinolone acetonide]",Solubility in ACN,,< 1000 µg/mL
same,Tolerability of IA dose,[1],well tolerated
